The values below come from PubChem BioAssay (NCI).

What all share (assay): NCI-60 cell line screen, 48 h
Assay [1] relates to UACC-62 melanoma.
In assay [2] the test system is LOX IMVI melanoma.
In assay [3] the test system is NCI-H522 lung.
Assay [4] concerns RXF 393 renal.
Assay [5] relates to A549 NSCLC.
For assay [6], the system named is SK-MEL-2 melanoma.
The subject of assay [7] is MDA-MB-231 breast.
Assay [8] deals with SNB-19 CNS.
The subject of assay [9] is BT-549 breast.
For assay [10], the system named is SNB-75 CNS.

Values joined by “and” are separate entries in the source; they are usually repeats but may differ in a detail not shown here. Identical values can stand only once.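 Dose response: 5 concentrations. Exposure: 48 h. Format: 96-well plates. Endpoint: linear interpolation; highest concentration if not reached. Here, GI50 denotes the concentration required for 50% inhibition of growth. TGI: concentration producing complete growth inhibition.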 Bounds are passed on as bounds.

As to `C[C@]12CC[C@@H]3c4cc(OCC(F)(F)F)c(O)cc4/C(=N/O)C[C@H]3[C@@H]1CC[C@@H]2O`, the GI50 in assay [1] is 0.0243 µM; in assay [2], 0.048 µM; in assay [3], 0.0507 µM; in [4] it was 0.0322 µM. The TGI in assay [1] stood at 17.7 µM; in assay [2], 14.8 µM; in assay [3], 25.6 µM; in assay [4] it was 0.135 µM; in [5], 35.6 µM; in assay [6] it was 0.852 µM. Besides, the TGI in assay [7] was 1.5 µM; in assay [8], > 63.1 µM.

Take `CC(=O)C(=CN1CCN(C(=O)c2ccco2)C1=S)C(C)=O`: the GI50 in assay [1] was 5.52 µM; in assay [2] it was 2.12 µM; in assay [9], 14 µM; in assay [4], 1.84 µM; in assay [5], 11.2 µM; in [10], 9.02 µM. For the same compound, the values for the GI50 in assay [6], in assay [7] and in assay [8] were 3.34 µM, 2.62 µM and 30.1 µM, respectively. Besides, the TGI in [1] was determined as 19.1 µM; in assay [2] it was 4.62 µM; in assay [9], 30.1 µM; in assay [4] it was 6.24 µM; in assay [5], 32.7 µM; in assay [10], 71.4 µM. Also, the results for the TGI in assay [6], in [7] and in assay [8] were 8.52 µM, 6.96 µM and 63.6 µM, respectively.

`Nc1ccc2cc3ccc(N)cc3nc2c1`: the TGI is 3.73 µM [middle of 4 runs] in assay [1]; 7.71 µM and 3.58 µM and 3.09 µM in assay [2]; 1.31 µM and 2.82 µM and 2.87 µM in assay [3]; 10.4 µM and 16.2 µM and 12 µM in [9]; 5.83 µM and 3.15 µM and 1.97 µM in assay [4]; 3.25 µM [middle of 4 runs] in [10]. Also, in assay [7], the TGI is 7.94 µM and 5.03 µM and 8.4 µM. The GI50 in assay [3] was 0.295 µM and 0.542 µM and 0.824 µM; in assay [9], 1.91 µM; in assay [4], 2.03 µM and 1.36 µM and 0.565 µM.

On to `C1CCC([PH+](C2CCCCC2)C2CCCCC2[PH+](C2CCCCC2)C2CCCCC2)CC1.O=C(C1[CH-]CCCC1)C1CCCC[N-]1.[Au]` (stereo not drawn), for which the GI50 is 0.226 µM in [1]; 0.261 µM in [9]; 0.317 µM in assay [4]; 0.179 µM in [10]; 0.379 µM in assay [6]; 0.223 µM in assay [7]. The TGI in assay [1] is 0.835 µM; in assay [9] it was 1.5 µM; in assay [4], 1.38 µM; in assay [10], 1.05 µM; in assay [6], 2.02 µM; in assay [7] it was 0.713 µM.

As to `CCCCCCCCCCCCCCCCCCOc1ccccc1CC(=O)OCC[N+]1(C)CCCC1`, the GI50 is 1.63 µM in [1]; 1.8 µM in [2]; 2.59 µM in assay [9]; 1.35 µM in [4]; 1.26 µM in assay [10]; 1.7 µM in assay [7]. Moreover, the TGI was 3.33 µM in assay [1]; 3.36 µM in [2]; 6.95 µM in [9]; 2.76 µM in assay [4]; 3.07 µM in assay [10]; 3.55 µM in [7].

For `O=C1CSC(c2ccc(Cl)cc2Cl)N1c1ccc(F)cc1` (stereo not drawn), the GI50 is 16.2 µM in [1]; 18.2 µM in [2]; 15.1 µM in assay [3]; 18 µM in assay [9]; 27.4 µM in assay [4]; 19.1 µM in assay [5]. The GI50 in [6] was 18.9 µM; in [7], 16.1 µM. The TGI was 30.5 µM in assay [1]; 34 µM in [2]; 31.1 µM in [3]; 32.3 µM in assay [9]; 56 µM in [4]; 36.1 µM in assay [5]. Also, the TGI in assay [6] is 38 µM; in assay [7], 30.4 µM.

As for `ClCc1cccc(Cn2cnc3nc(Cl)nc(Cl)c32)c1`, the GI50 in assay [1] is 1.02 µM; in assay [3], 1.84 µM; in assay [9] it was 0.487 µM; in assay [4] it was 1.33 µM; in [5], 6.46 µM; in assay [10], 0.912 µM. In addition, the GI50 in [6] is 1.78 µM; in assay [7] it was 0.234 µM; in assay [8], 1.32 µM. In addition, the TGI in assay [1] is 2.22 µM; in assay [3] it was 3.79 µM; in [9], 1.75 µM; in assay [4] it was 2.92 µM; in assay [5], 19.8 µM; in assay [10] it was 2.2 µM. In addition, the values for the TGI in [6], in [7] and in [8] were 3.74 µM, 0.694 µM and 2.69 µM, respectively.

Turning to `COc1cc(NC(C)CCCN)c2nccc(C)c2c1` (stereo not drawn), the TGI was 35.8 µM in assay [1]; 33.3 µM in assay [3]; 56.7 µM in assay [9]; > 100 µM in [5]; 37.1 µM in [10]; 37.9 µM in assay [6]. Besides, the TGI in assay [8] was > 100 µM.

Consider `O=C(/C=C\c1ccc(NCc2ccc(C(=O)O)cc2)cc1)CCl`, for which the GI50 was 2.17 µM in assay [2]; 1.65 µM in [3]; 7.95 µM in [9]; 17.2 µM in [5]; 13.4 µM in assay [10]; 15 µM in [6]. The GI50 in [7] was 12.7 µM; in assay [8], 15.3 µM. The TGI in [2] turned out to be 5.12 µM; in [3] it was 3.24 µM; in assay [9], 21.5 µM; in assay [5], 33 µM; in [10], 26.3 µM; in assay [6], 30.5 µM. Besides, the figures for the TGI in assay [7] and in [8] were 27 µM and 29.1 µM, respectively.

As to `CCc1nc(C(N)=O)c(Nc2ccc(N3CCC(N4CCN(C)CC4)CC3)c(OC)c2)nc1NC1CCOCC1`, the GI50 is 1.53 µM and 0.527 µM and 1.56 µM in [1]; 2.12 µM and 0.337 µM and 2.82 µM in assay [2]; 4.96 µM and 0.763 µM and 6.27 µM in [3]; 2.61 µM and 0.521 µM and 3.56 µM in [9]; 1.39 µM and 0.358 µM and 1.7 µM in assay [4]; 2.35 µM and 0.379 µM and 2.61 µM in assay [5]. Moreover, the GI50 in [10] was 0.598 µM and 0.423 µM and 0.67 µM; in assay [7] it was 3.38 µM and 0.829 µM and 3.52 µM. In addition, the TGI in assay [1] was 16.9 µM and > 10 µM and 16.4 µM; in assay [2] it was 17.6 µM and > 2.34 µM and 19.4 µM; in [3], 21.7 µM and > 2.52 µM and 23.9 µM; in assay [9], 14.7 µM and > 2.84 µM and 17.3 µM; in [4], 4.54 µM and 1.12 µM and 6.27 µM; in assay [5], 15.2 µM and > 10 µM and 16.1 µM. Besides, the TGI is 5.4 µM and 1.91 µM and 7.74 µM in [10]; 17.7 µM and > 10 µM and 17.2 µM in [7]; 20.2 µM and > 10 µM and 22.7 µM in [8].
